What was measured:
[1] = target: T1, SARS-CoV-2 M^pro (main protease, 3CL^pro) (Severe acute respiratory syndrome coronavirus 2, UniProt P0DTD1); assay: BRET-based sensor proteolytic cleavage assay; assay type: biochemical; conditions: read-out: Determined EC50
T1 construct: gene rep
Excerpt: BRET-based sensor proteolytic cleavage assay on SARS-CoV-2 M^pro (main protease, 3CL^pro)

[2] = target: T1, SARS-CoV-2 M^pro (main protease, 3CL^pro); assay: BRET-based sensor proteolytic cleavage assay; assay type: biochemical; conditions: 2 μM purified M^pro preincubated with compound 1 h at 37 °C; TBS, 1 M sodium citrate, 1 mM EDTA, 2 mM DTT; mNG-NLuc sensor substrate in HEK 293T lysate; read at 30 min

With `CCCCc1nc(Cl)c(CO)n1Cc1ccc(-c2ccccc2-c2nn[nH]n2)cc1` [LT, Losartan] the EC50 [1] was 260 ± 88.6 µM.
With `CCCc1nc2c(C)cc(-c3nc4ccccc4n3C)cc2n1Cc1ccc(-c2ccccc2C(=O)O)cc1` [TM, Telmisartan] the EC50 not determined [2] was “Telmisartan completely failed to inhibit M^pro”.
